In patent US8962558B2, “Methods for reducing GnRH-positive tumor cell proliferation using the GnRH antagonist IN3” (priority 1997, dated 2015):

What was measured:
[1] = test system: human glioblastoma cell lines U-87MG or U-373MG, Kaposi sarcoma cell lines KSY-1 or KS-SLK, malignant melanoma cell line MV3 or BLM, medulloblastoma cell line …; experiment: Proliferation assay on cell cultures (Example 3); assay type: cell-based; conditions: cell lines of Example 3 treated with the substance
Glioblastoma multiforme = experiment: Phase II study with ZOLADEX (Example 7); assay type: in vivo, human
Procedure: Patients with histologically confirmed Glioblastoma multiforme following a first operation were treated (also randomized controlled) with ZOLADEX® in the manner described by Jonat et al., 1995, European J. Cancer, 137-142. Following radiotherapy, the patients are assigned to two different groups. One group received treatment, for example with ZOLADEX® and one group without ZOLADEX® (or with Cetrorelix® and without Cetrorelix®, or with ANTIDE® and without ANTIDE®, or with […]® or without […]® etc.). The resulting clinical effects are similar to metastasized […] mammary carcinoma. The percentage of patients showing an actual significant therapy effect is evaluated according to the criteria of tumor volume, recidivation-free survival, overall survival following initial application of the compound, and Karnofsky and Spitzer indices in a clinical neurological examination and under consideration of the other examination criteria (Sposto, R., et al., 1989, J. Neurooncology, 7, 165-177, and Kirby, S., et al., 1995, J. Natl. Cancer Institute, 87, 1884-1888, 1995).

CC(C)C[C@H](NC(=O)[C@@H](COC(C)(C)C)NC(=O)[C@H](Cc1ccc(O)cc1)NC(=O)[C@H](CO)NC(=O)[C@H](Cc1c[nH]c2ccccc12)NC(=O)[C@H](Cc1cnc[nH]1)NC(=O)[C@@H]1CCC(=O)N1)C(=O)N[C@@H](CCCNC(=N)N)C(=O)N1CCC[C@H]1C(=O)NNC(N)=O [ZOLADEX®, D-Ser(tBu)^6Aza-Gly-LHRH]
anti-proliferative effects in tumor cells [1]: Significant anti-proliferative effects
reduction in tumor volume vs untreated control group (Glioblastoma multiforme; MRT and/or CAT scans): significantly higher reduction in tumor volume
overall survival following initial application vs untreated control group (Glioblastoma multiforme; in vivo): significantly longer overall survival
recidivation-free survival vs untreated control group (Glioblastoma multiforme; in vivo): significantly longer recidivation-free survival
